{"source": "ChEMBL document CHEMBL1135817", "about": "“New templates for syntheses of ring-fused, C(10) beta-turn peptidomimetics leading to the first reported small-molecule mimic of neurotrophin-3” (2002)", "key": {"[1]": {"molecular_target": "NT-3 growth factor receptor (Mus musculus) (UniProt Q6VNS1)", "sequence (Q6VNS1 whole entry)": "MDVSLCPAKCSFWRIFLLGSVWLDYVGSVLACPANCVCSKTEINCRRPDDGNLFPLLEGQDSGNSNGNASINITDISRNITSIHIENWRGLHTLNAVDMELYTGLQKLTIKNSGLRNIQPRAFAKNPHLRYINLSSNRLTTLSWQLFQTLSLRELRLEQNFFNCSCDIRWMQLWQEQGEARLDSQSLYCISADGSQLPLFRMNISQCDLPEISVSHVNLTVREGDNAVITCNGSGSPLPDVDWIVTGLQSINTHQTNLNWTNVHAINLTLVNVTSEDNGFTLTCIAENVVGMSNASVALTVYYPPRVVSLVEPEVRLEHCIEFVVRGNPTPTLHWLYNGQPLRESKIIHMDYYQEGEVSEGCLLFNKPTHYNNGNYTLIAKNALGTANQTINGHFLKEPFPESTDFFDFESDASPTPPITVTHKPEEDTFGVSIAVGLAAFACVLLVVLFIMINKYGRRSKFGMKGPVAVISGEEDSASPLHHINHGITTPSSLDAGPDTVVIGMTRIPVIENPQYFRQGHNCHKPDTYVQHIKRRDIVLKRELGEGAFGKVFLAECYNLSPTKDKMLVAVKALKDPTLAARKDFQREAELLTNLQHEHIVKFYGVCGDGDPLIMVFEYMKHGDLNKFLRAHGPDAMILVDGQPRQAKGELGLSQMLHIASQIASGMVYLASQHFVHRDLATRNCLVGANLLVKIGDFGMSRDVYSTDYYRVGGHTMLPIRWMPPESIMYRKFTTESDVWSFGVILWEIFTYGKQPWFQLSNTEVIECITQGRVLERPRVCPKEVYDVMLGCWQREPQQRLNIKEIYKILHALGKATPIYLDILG", "experiment": "Binding of FITCanti-TrkC-Ab to TrkC receptor transfected NIH3T3 cells (positive control)", "format": "cell-based"}, "[2]": {"molecular_target": "NT-3 growth factor receptor (Mus musculus) (UniProt Q6VNS1)", "experiment": "Survival of TrkC receptor transfected NIH3T3 cells at 50 uM with 100 pM NT-3", "format": "functional, cell-based"}, "[3]": {"molecular_target": "NT-3 growth factor receptor (Mus musculus) (UniProt Q6VNS1)", "experiment": "Survival of TrkC receptor transfected NIH3T3 cells at o.4 uM without NT-3", "format": "functional, cell-based"}, "[4]": {"molecular_target": "NT-3 growth factor receptor (Mus musculus) (UniProt Q6VNS1)", "experiment": "Survival of TrkC receptor transfected NIH3T3 cells with 2000 pM NT-3 (positive control)", "format": "functional, cell-based"}, "[5]": {"molecular_target": "NT-3 growth factor receptor (Mus musculus) (UniProt Q6VNS1)", "experiment": "Survival of TrkC receptor transfected NIH3T3 cells at 10 uM without NT-3", "format": "functional, cell-based"}, "[6]": {"molecular_target": "High affinity nerve growth factor receptor (Homo sapiens) (UniProt P04629)", "sequence (P04629 33-796 limits assumed)": "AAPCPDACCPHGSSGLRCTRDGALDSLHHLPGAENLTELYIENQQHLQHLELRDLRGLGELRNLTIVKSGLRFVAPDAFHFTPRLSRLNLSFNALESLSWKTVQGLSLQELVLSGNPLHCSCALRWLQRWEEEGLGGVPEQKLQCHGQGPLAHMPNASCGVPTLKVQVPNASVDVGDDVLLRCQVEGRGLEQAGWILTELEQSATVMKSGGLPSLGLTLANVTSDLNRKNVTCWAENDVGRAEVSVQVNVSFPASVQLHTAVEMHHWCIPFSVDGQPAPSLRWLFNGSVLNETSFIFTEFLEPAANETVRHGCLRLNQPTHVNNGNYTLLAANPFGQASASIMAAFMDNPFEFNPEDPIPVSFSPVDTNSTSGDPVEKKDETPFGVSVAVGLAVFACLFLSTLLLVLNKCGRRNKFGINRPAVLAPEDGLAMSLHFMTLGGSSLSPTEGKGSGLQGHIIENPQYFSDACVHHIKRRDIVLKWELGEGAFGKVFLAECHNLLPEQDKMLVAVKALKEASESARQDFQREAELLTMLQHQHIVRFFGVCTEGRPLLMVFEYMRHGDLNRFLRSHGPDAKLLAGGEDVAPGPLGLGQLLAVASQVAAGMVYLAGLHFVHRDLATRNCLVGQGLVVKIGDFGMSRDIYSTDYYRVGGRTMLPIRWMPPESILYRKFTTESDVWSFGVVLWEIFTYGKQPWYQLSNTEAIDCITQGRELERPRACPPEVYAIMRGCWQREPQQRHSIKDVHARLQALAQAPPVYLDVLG", "experiment": "Binding of FITCanti-TrkA-Ab to human TrkA receptor transfected NIH3T3 cells (positive control)", "format": "cell-based"}, "[7]": {"molecular_target": "NT-3 growth factor receptor (Mus musculus) (UniProt Q6VNS1)", "experiment": "Survival of TrkC receptor transfected NIH3T3 cells at 2 uM with 100 pM NT-3", "format": "functional, cell-based"}, "[8]": {"molecular_target": "NT-3 growth factor receptor (Mus musculus) (UniProt Q6VNS1)", "experiment": "Survival of TrkC receptor transfected NIH3T3 cells without NT-3 (negative control)", "format": "functional, cell-based"}, "[9]": {"molecular_target": "NT-3 growth factor receptor (Mus musculus) (UniProt Q6VNS1)", "experiment": "Survival of TrkC receptor transfected NIH3T3 cells at 50 uM without NT-3", "format": "functional, cell-based"}, "[10]": {"molecular_target": "NT-3 growth factor receptor (Mus musculus) (UniProt Q6VNS1)", "experiment": "Survival of TrkC receptor transfected NIH3T3 cells at 10 uM with 100 pM NT-3", "format": "functional, cell-based"}, "[11]": {"molecular_target": "NT-3 growth factor receptor (Mus musculus) (UniProt Q6VNS1)", "experiment": "Survival of TrkC receptor transfected NIH3T3 cells at 2 uM without NT-3", "format": "functional, cell-based"}, "[12]": {"molecular_target": "NT-3 growth factor receptor (Mus musculus) (UniProt Q6VNS1)", "experiment": "Survival of TrkC receptor transfected NIH3T3 cells at o.4 uM with 100 pM NT-3", "format": "functional, cell-based"}, "NIH3T3 [13]": {"tested_on": "NIH3T3", "experiment": "Binding of irrelevant FITC-Ab to NIH3T3 cells (negative control)", "format": "functional, Mus musculus"}, "[14]": {"molecular_target": "NT-3 growth factor receptor (Mus musculus) (UniProt Q6VNS1)", "experiment": "Survival of TrkC receptor transfected NIH3T3 cells with suboptimal NT-3 (100 pM)", "format": "functional, cell-based"}, "[15]": {"molecular_target": "NT-3 growth factor receptor (Mus musculus) (UniProt Q6VNS1)", "experiment": "Binding affinity for TrkC receptor transfected cells at 20 uM without NT-3"}, "[16]": {"molecular_target": "NT-3 growth factor receptor (Mus musculus) (UniProt Q6VNS1)", "experiment": "Binding affinity for TrkC receptor transfected cells at 20 uM with 20 nM anti-TrkC-Ab"}, "[17]": {"molecular_target": "NT-3 growth factor receptor (Mus musculus) (UniProt Q6VNS1)", "experiment": "Binding affinity for TrkC receptor transfected cells at 20 uM with 2 nM NT-3"}, "[18]": {"molecular_target": "High affinity nerve growth factor receptor (Homo sapiens) (UniProt P04629)", "experiment": "Binding affinity for TrkA receptor transfected NIH3T3 cells at 20 uM with 2 nM NGF", "format": "cell-based"}, "NIH3T3 [19]": {"tested_on": "NIH3T3", "experiment": "Binding affinity for NIH3T3 cells at 20 uM (negative control)", "format": "functional, Mus musculus"}, "[20]": {"molecular_target": "High affinity nerve growth factor receptor (Homo sapiens) (UniProt P04629)", "experiment": "Binding affinity for TrkA receptor transfected NIH3T3 cells at 20 uM without NGF", "format": "cell-based"}}}
{"smiles": "NCCCC[C@@H]1NC(=O)c2cc([N+](=O)[O-])ccc2NCc2ccc(C(N)=O)cc2NC(=O)[C@H](CO)NC1=O", "values": [{"measurement": "Max binding", "setting": "[1]", "value": 22, "unit": "%"}, {"measurement": "Survival", "setting": "[2]", "value": 36, "unit": "%"}, {"measurement": "Survival", "setting": "[3]", "value": 0.2, "unit": "%"}, {"measurement": "Survival", "setting": "[4]", "value": 100, "unit": "%"}, {"measurement": "Survival", "setting": "[5]", "value": 0.4, "unit": "%"}, {"measurement": "Max binding", "setting": "[6]", "value": 71, "unit": "%"}, {"measurement": "Survival", "setting": "[7]", "value": 33, "unit": "%"}, {"measurement": "Survival", "setting": "[8]", "value": 0, "unit": "%"}, {"measurement": "Survival", "setting": "[9]", "value": 0.2, "unit": "%"}, {"measurement": "Survival", "setting": "[10]", "value": 38, "unit": "%"}, {"measurement": "Survival", "setting": "[11]", "value": 0.1, "unit": "%"}, {"measurement": "Survival", "setting": "[12]", "value": 32, "unit": "%"}, {"measurement": "Max binding", "setting": "NIH3T3 [13]", "value": 14, "unit": "%"}, {"measurement": "Survival", "setting": "[14]", "value": 26, "unit": "%"}]}
{"smiles": "NCCCC[C@@H]1NC(=O)c2cc(NC(=O)CC/N=C(S)/N=C3/C=CC(=C4c5ccc(O)cc5Oc5cc(O)ccc54)C(C(=O)O)=C3)ccc2NCc2ccc(C(N)=O)cc2NC(=O)[C@H](CO)NC1=O", "values": [{"measurement": "Max binding", "setting": "[15]", "value": 11, "unit": "%"}, {"measurement": "Max binding", "setting": "[16]", "value": 40, "unit": "%"}, {"measurement": "Max binding", "setting": "[17]", "value": 42, "unit": "%"}, {"measurement": "Max binding", "setting": "[18]", "value": 9, "unit": "%"}, {"measurement": "Max binding", "setting": "NIH3T3 [19]", "value": 14, "unit": "%"}, {"measurement": "Max binding", "setting": "[20]", "value": 22, "unit": "%"}]}
